Consider two molecules from BindingDB's records for doi:10.1016/j.bmcl.2006.08.033 (University of Maryland, 2006).

The target of this experiment is Guanine deaminase (Oryctolagus cuniculus). Briefly: Inhibition of rabbit liver guanase.

For the molecule `O=C1NC(CO)C(=O)Nc2c1ncn2Cc1ccccc1` (configuration not stated) [3-benzyl-4,5,7,8-tetrahydro-6-hydroxymethyl-6H-imidazo[4,5-e][1,4]diazepine-5,8-dione], the Ki is 20.1 µM. With `O=C1NC(CO)C(=O)Nc2nc[nH]c21` (configuration not stated) [4,5,7,8-tetrahydro-6-hydroxymethyl-6H-imidazo[4,5-e][1,4]diazepine-5,8-dione] the figure was 53.6 µM.

As a reminder, the Ki is the equilibrium dissociation constant of an inhibitor or competing ligand from its target. Higher therefore signals lower affinity.
